Test [1] addresses Ephrin type-B receptor 4 (Homo sapiens) (UniProt P54760). Put plainly: Binding affinity to wild-type human partial length EPHB4 (H585 to G892 residues) expressed in bacterial expression system assessed as residual binding level at 10 uM by Kinomescan method relative to control.
Test [2] has as its target Activin receptor type-2B (Homo sapiens) (UniProt Q13705). Put plainly: Binding affinity to wild-type human ACVR2B (H169 to D504 residues) expressed in bacterial expression system assessed as residual binding level at 10 uM by Kinomescan method relative to control.
Test [3] concerns the target Serine/threonine-protein kinase PAK 3 (Homo sapiens) (UniProt O75914). Briefly: Binding affinity to wild-type human full length PAK3 (M1 to R544 residues) expressed in bacterial expression system assessed as residual binding level at 10 uM by Kinomescan method relative to control.
Test [4] deals with Myosin light chain kinase (Homo sapiens) (UniProt Q32MK0). Put plainly: Binding affinity to wild-type human partial length MLCK (D488 to K800 residues) expressed in bacterial expression system assessed as residual binding level at 10 uM by Kinomescan method relative to control.
The target of test [5] is Mitogen-activated protein kinase kinase kinase 5 (Homo sapiens) (UniProt Q99683). Put plainly: Binding affinity to wild-type human partial length ASK1 (E648 to S964 residues) expressed in bacterial expression system assessed as residual binding level at 10 uM by Kinomescan method relative to control.
Chain of Mitogen-activated protein kinase kinase kinase 5 (Homo sapiens) (Q99683 whole entry, the tested form may be a part): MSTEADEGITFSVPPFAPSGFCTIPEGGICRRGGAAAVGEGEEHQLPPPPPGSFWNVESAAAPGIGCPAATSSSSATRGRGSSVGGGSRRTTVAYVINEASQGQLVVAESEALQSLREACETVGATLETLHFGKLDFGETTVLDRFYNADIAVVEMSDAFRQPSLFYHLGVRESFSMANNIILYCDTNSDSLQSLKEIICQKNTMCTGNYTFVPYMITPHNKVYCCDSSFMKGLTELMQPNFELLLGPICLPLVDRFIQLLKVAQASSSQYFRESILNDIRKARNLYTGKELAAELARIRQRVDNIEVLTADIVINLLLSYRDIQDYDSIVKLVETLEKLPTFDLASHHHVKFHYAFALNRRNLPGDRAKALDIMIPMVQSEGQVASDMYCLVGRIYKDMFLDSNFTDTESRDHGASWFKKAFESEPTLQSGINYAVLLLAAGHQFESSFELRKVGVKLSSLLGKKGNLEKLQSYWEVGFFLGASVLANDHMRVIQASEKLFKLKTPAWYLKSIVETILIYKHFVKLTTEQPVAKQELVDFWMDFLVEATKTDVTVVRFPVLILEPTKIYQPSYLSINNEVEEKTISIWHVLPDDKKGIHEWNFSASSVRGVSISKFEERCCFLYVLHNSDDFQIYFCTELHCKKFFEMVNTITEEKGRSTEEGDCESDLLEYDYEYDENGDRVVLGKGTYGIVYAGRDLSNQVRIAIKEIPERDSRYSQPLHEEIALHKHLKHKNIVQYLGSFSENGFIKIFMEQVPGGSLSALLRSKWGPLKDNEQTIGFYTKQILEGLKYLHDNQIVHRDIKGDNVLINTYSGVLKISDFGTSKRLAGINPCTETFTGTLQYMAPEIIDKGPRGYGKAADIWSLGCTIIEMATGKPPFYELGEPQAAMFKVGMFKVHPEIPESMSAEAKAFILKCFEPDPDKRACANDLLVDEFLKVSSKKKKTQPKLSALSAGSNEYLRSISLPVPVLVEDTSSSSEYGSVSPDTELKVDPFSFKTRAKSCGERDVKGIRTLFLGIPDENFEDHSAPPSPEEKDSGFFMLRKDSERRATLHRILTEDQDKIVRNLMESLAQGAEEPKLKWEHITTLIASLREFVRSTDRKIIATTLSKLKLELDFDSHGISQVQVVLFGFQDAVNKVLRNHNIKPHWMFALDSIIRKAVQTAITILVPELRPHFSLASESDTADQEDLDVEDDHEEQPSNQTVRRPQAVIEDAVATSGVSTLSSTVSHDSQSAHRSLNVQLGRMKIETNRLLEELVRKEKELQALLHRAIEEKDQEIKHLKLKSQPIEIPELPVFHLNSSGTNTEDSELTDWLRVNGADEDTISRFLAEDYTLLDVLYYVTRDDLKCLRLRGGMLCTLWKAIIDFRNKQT
The target in test [6] is Dual specificity tyrosine-phosphorylation-regulated kinase 1A (Homo sapiens) (UniProt Q13627). Briefly: Binding affinity to wild-type human partial length DYRK1A (H129 to S509 residues) expressed in mammalian expression system assessed as residual binding level at 10 uM by Kinomescan method relative to control.
Test [7] deals with Phosphatidylinositol 4,5-bisphosphate 3-kinase catalytic subunit alpha isoform (Homo sapiens), P42336 [M1043I]. Briefly: Binding affinity to human partial length PIK3CA M1043I mutant (R108 to N1068 residues) expressed in mammalian expression system assessed as residual binding level at 10 uM by Kinomescan method relative to control.
Chain of Phosphatidylinositol 4,5-bisphosphate 3-kinase catalytic subunit alpha isoform (Homo sapiens), P42336 [M1043I] (P42336 whole entry M1043I, the tested form may be a part, canonical isoform): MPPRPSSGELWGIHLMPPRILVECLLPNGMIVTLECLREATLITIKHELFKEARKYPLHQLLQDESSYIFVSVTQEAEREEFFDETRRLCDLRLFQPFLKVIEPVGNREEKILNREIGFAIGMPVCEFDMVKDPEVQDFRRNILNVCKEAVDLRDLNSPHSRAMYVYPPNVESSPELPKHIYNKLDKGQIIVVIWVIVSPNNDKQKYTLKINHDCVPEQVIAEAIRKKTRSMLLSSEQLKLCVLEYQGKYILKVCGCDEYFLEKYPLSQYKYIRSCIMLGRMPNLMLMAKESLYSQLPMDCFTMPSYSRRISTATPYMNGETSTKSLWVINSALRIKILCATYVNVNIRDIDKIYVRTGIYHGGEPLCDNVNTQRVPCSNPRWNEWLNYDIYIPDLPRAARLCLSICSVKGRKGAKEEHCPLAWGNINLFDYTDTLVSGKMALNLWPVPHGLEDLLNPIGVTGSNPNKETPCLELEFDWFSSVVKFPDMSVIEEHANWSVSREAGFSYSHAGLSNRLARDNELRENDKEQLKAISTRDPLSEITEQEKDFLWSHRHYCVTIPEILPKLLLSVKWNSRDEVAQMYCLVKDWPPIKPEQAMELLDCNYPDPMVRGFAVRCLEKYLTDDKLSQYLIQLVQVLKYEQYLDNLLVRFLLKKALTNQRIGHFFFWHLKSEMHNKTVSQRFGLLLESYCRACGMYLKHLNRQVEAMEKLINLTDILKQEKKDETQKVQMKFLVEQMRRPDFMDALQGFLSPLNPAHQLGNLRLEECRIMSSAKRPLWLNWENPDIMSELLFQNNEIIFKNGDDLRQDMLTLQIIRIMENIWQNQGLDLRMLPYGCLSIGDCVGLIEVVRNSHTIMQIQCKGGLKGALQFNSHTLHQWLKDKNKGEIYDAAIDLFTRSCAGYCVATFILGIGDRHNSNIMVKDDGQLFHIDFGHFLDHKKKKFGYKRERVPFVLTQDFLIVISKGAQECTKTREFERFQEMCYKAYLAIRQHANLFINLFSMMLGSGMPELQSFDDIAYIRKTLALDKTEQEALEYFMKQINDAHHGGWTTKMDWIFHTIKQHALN
Test [8] deals with Ephrin type-B receptor 6 (Homo sapiens) (UniProt O15197). Put plainly: Binding affinity to wild-type human partial length EPHB6 (Q634 to P948 residues) expressed in mammalian expression system assessed as residual binding level at 10 uM by Kinomescan method relative to control.
Chain of Ephrin type-B receptor 6 (Homo sapiens) (O15197 whole entry, the tested form may be a part): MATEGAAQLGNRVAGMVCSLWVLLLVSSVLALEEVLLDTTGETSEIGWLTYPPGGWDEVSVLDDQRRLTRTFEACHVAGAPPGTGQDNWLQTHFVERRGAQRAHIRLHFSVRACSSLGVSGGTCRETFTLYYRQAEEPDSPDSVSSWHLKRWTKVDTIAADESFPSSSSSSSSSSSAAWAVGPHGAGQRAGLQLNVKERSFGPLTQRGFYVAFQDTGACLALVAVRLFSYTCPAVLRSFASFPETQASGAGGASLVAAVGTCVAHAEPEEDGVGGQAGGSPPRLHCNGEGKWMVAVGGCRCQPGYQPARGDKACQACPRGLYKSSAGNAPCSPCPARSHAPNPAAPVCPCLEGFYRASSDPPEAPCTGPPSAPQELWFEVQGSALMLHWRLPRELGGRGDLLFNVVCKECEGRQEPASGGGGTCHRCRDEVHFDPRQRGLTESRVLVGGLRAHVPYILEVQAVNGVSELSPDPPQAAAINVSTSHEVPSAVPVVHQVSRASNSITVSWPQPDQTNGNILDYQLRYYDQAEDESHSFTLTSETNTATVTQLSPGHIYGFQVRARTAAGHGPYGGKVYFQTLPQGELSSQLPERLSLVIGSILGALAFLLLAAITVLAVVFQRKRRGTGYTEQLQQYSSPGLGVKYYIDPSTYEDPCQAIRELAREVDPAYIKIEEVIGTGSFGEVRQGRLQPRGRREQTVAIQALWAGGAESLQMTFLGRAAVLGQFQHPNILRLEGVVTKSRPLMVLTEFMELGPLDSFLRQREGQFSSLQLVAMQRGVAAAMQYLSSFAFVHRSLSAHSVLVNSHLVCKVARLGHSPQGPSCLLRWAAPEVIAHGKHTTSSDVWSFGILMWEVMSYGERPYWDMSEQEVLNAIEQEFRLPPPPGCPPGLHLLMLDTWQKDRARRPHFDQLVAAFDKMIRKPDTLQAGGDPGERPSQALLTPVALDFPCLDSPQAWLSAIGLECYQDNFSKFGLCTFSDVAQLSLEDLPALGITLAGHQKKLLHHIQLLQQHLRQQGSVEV
Test [9] concerns the target Myosin-IIIa (Homo sapiens) (UniProt Q8NEV4). Briefly: Binding affinity to wild-type human partial length MYO3A (M1 to K338 residues) expressed in bacterial expression system assessed as residual binding level at 10 uM by Kinomescan method relative to control.
For test [10], the target named is Phosphatidylinositol 4-phosphate 3-kinase C2 domain-containing subunit beta (Homo sapiens) (UniProt O00750). Put plainly: Binding affinity to wild-type human partial length PIK3C2B (M1 to L1634 residues) expressed in mammalian expression system assessed as residual binding level at 10 uM by Kinomescan method relative to control.
The subject of test [11] is Mast/stem cell growth factor receptor Kit (Homo sapiens), P10721 [D816V]. Put plainly: Binding affinity to human partial length KIT D816V mutant (I571 to D952 residues) expressed in bacterial expression system assessed as residual binding level at 10 uM by Kinomescan method relative to control.
Test [12] has as its target Membrane-associated tyrosine- and threonine-specific cdc2-inhibitory kinase (Homo sapiens) (UniProt Q99640). Put plainly: Binding affinity to wild-type human partial length PKMYT1 (A88 to G366 residues) expressed in bacterial expression system assessed as residual binding level at 10 uM by Kinomescan method relative to control.
Test [13] concerns the target Serine/threonine-protein kinase PAK 5 (Homo sapiens) (UniProt Q9P286). Put plainly: Binding affinity to wild-type human partial length PAK7 (Y400 to H719 residues) expressed in bacterial expression system assessed as residual binding level at 10 uM by Kinomescan method relative to control.
For test [14], the system named is Mast/stem cell growth factor receptor Kit (Homo sapiens), P10721 [D816H]. Put plainly: Binding affinity to human partial length KIT D816H mutant (I571 to D952 residues) expressed in mammalian expression system assessed as residual binding level at 10 uM by Kinomescan method relative to control.
Test [15] addresses Phosphatidylinositol 3-kinase C2 domain-containing subunit gamma (Homo sapiens) (UniProt O75747). Put plainly: Binding affinity to wild-type human partial length PIK3C2G (M1 to I1446 residues) expressed in mammalian expression system assessed as residual binding level at 10 uM by Kinomescan method relative to control.
The target in test [16] is Cyclin-dependent kinase-like 1 (Homo sapiens) (UniProt Q00532). Put plainly: Binding affinity to wild-type human full length CDKL1 (M1 to I358 residues) expressed in mammalian expression system assessed as residual binding level at 10 uM by Kinomescan method relative to control.
Test [17] has as its target Phosphatidylinositol 4,5-bisphosphate 3-kinase catalytic subunit alpha isoform (Homo sapiens) (UniProt P42336). Put plainly: Binding affinity to wild-type human partial length PIK3CA (R108 to N1068 residues) expressed in mammalian expression system assessed as residual binding level at 10 uM by Kinomescan method relative to control.
The target of test [18] is Receptor tyrosine-protein kinase erbB-2 (Homo sapiens) (UniProt P04626). Briefly: Binding affinity to wild-type human partial length ERBB2 (K646 to V1225 residues) expressed in mammalian expression system assessed as residual binding level at 10 uM by Kinomescan method relative to control.
The target in test [19] is Tyrosine-protein kinase ITK/TSK (Homo sapiens) (UniProt Q08881). Briefly: Binding affinity to wild-type human partial length ITK (R335 to L620 residues) expressed in bacterial expression system assessed as residual binding level at 10 uM by Kinomescan method relative to control.
The target of test [20] is Ribosomal protein S6 kinase alpha-5 (Homo sapiens) (UniProt O75582). Put plainly: Binding affinity to wild-type human partial length C-terminal RPS6KA5 kinase domain 2 (V390 to T718 residues) expressed in bacterial expression system assessed as residual binding level at 10 uM by Kinomescan method relative to control.
The target of test [21] is Proto-oncogene tyrosine-protein kinase receptor Ret (Homo sapiens) (UniProt P07949). Briefly: Binding affinity to wild-type human partial length RET (E713 to D1014 residues) expressed in bacterial expression system assessed as residual binding level at 10 uM by Kinomescan method relative to control.
The target in test [22] is Mitogen-activated protein kinase kinase kinase kinase 4 (Homo sapiens) (UniProt O95819). Put plainly: Binding affinity to wild-type human partial length MAP4K4 (M1 to R310 residues) expressed in bacterial expression system assessed as residual binding level at 10 uM by Kinomescan method relative to control.
The target of test [23] is 5'-AMP-activated protein kinase catalytic subunit alpha-2 (Homo sapiens) (UniProt P54646). Put plainly: Binding affinity to wild-type human partial length AMPK alpha2 (M1 to E306 residues) expressed in bacterial expression system assessed as residual binding level at 10 uM by Kinomescan method relative to control.
Test [24] concerns Epidermal growth factor receptor (Homo sapiens), P00533 [L858R,T790M]. Briefly: Binding affinity to human partial length EGFR L858R/T790M double mutant (R669 to V1011 residues) expressed in mammalian expression system assessed as residual binding level at 10 uM by Kinomescan method relative to control.

Chain of Mast/stem cell growth factor receptor Kit (Homo sapiens), P10721 [D816V] (P10721 whole entry D816V, the tested form may be a part): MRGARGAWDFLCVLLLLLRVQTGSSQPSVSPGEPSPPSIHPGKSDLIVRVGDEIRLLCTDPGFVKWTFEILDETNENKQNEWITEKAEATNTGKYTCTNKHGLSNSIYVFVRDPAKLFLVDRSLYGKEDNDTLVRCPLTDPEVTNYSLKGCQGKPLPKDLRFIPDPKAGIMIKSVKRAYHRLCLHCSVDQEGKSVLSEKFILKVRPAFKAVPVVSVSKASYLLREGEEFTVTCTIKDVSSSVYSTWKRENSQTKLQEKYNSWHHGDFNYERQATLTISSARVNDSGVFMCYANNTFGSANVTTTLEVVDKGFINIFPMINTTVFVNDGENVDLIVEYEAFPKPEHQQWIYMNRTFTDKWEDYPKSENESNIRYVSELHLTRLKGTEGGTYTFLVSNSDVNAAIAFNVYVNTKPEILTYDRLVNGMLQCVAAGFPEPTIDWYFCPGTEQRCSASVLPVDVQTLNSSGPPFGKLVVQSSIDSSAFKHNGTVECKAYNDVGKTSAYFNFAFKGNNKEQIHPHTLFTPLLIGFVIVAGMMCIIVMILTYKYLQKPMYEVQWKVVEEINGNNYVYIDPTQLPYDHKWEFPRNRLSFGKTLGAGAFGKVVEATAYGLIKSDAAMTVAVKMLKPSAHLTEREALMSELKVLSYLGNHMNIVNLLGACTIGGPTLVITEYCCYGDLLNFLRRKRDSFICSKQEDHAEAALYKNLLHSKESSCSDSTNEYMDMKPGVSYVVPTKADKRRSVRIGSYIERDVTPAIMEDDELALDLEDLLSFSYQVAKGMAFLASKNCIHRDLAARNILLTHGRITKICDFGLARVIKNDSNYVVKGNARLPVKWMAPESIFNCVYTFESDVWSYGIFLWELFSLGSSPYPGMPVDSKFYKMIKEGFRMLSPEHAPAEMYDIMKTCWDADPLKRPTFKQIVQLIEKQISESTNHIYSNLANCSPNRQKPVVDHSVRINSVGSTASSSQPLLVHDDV
Chain of Activin receptor type-2B (Homo sapiens) (Q13705 whole entry, the tested form may be a part): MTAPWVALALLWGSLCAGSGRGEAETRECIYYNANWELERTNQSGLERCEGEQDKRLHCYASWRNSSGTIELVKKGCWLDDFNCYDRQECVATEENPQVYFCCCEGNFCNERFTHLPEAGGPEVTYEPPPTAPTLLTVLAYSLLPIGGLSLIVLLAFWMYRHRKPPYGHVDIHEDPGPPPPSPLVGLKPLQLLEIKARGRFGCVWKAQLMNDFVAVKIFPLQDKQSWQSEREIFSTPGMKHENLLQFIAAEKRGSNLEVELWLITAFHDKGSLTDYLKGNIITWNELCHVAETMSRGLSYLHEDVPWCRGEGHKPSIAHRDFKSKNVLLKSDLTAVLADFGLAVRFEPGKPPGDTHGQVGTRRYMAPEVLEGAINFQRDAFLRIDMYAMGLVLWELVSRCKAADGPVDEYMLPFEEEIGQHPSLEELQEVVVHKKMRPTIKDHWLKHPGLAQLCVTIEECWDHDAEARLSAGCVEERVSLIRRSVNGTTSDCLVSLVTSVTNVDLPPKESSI

As for `O=C(Nc1cc(-c2cn(CCNc3c4c(nc5ccccc35)CCCC4)nn2)ccn1)Nc1cccc2c1C1CCCCN1C2=O` (racemic), the Activity in test [1] worked out at 100%; in test [2] it was 100%; in test [3] it was 40%; in test [4] it was 0.35%; in [5] it was 80%; in [6], 2.4%. Moreover, the Activity in test [7] was determined as 100%; in [8], 13%; in test [9], 75%; in [10], 51%; in [11], 1%; in test [12] it was 90%. The Activity in test [13] is 8.9%; in [14], 2.2%; in test [15] it was 44%; in test [16], 3%; in test [17] it was 73%; in test [18] it was 100%. Besides, the Activity turned out to be 82% in [19]; 96% in test [20]; 39% in test [21]; 97% in [22]; 15% in test [23]; 87% in test [24].

Values taken from ChEMBL document CHEMBL4390652, “Design, biological evaluation and X-ray crystallography of nanomolar multifunctional ligands targeting simultaneously acetylcholinesterase and glycogen synthase kinase-3” (Eur J Med Chem, 2019).
